Among the data in US12157741B2, “Macrocyclic inhibitors of DYRK1A” (DANA-FARBER CANCER INSTITUTE, INC., priority 2018, dated 2024) are Ambit profiling values, retold here.

Test [1] has as its target various enzymes (Homo sapiens, UniProt P08581). Conditions: MET; 1 uM.
Procedure: (§1) Ambit profiling from Eurofins (formerly Discoverx) was conducted in accordance with the manufacturer's instructions.
Test [2] addresses T1, various enzymes (Homo sapiens, UniProt Q8IVH8).
T1 sequence (Q8IVH8 1-894): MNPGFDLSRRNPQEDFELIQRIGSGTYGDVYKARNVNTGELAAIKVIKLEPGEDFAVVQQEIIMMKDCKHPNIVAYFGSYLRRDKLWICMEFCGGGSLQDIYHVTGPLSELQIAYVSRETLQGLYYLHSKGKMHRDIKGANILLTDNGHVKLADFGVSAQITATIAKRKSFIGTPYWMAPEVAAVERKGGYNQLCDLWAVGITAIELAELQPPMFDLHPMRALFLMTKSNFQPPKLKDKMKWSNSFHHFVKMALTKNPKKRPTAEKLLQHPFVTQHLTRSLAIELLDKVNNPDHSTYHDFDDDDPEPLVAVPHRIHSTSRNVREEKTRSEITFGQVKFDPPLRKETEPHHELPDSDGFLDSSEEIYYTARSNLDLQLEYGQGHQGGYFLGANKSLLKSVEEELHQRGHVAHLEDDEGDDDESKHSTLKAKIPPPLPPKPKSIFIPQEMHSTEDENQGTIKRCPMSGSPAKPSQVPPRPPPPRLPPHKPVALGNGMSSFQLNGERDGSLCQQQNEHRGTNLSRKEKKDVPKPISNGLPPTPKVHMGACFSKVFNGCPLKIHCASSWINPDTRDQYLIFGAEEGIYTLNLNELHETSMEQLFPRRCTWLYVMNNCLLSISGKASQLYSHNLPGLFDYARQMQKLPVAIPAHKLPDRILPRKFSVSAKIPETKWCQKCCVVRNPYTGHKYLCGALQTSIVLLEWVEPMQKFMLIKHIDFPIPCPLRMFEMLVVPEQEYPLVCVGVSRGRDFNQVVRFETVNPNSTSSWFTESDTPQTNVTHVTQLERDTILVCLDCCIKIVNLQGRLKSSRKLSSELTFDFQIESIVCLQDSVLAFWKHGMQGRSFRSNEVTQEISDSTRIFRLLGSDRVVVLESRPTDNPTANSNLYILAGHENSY
The following applies: MAP4K3; 1 uM.
Procedure: as §1

The target of test [3] is T2, various enzymes (Homo sapiens, UniProt Q96L34).
T2 sequence (Q96L34 1-752): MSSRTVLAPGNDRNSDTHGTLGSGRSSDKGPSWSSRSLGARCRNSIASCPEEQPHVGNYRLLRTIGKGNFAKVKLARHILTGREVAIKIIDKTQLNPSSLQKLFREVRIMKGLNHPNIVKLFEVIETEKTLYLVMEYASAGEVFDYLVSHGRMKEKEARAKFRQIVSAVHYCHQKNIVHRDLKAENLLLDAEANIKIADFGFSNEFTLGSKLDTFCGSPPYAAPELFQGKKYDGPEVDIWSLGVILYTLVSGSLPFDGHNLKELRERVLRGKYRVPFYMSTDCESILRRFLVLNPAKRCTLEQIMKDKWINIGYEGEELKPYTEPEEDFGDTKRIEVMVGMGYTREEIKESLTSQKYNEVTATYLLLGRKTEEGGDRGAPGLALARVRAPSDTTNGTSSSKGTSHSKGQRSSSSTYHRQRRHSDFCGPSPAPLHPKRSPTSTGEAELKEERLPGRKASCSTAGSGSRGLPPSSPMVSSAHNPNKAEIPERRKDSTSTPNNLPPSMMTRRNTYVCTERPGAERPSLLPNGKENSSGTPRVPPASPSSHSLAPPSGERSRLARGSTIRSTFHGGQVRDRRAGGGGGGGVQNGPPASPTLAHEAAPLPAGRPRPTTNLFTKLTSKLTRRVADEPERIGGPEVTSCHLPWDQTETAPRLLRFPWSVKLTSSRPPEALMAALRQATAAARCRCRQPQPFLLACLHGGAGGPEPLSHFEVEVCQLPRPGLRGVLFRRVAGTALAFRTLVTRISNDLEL
The following applies: MARK4; 1 uM.
Procedure: as §1

Test [4] has as its target T3, various enzymes (Homo sapiens, UniProt Q99640).
T3 sequence (Q99640 1-499): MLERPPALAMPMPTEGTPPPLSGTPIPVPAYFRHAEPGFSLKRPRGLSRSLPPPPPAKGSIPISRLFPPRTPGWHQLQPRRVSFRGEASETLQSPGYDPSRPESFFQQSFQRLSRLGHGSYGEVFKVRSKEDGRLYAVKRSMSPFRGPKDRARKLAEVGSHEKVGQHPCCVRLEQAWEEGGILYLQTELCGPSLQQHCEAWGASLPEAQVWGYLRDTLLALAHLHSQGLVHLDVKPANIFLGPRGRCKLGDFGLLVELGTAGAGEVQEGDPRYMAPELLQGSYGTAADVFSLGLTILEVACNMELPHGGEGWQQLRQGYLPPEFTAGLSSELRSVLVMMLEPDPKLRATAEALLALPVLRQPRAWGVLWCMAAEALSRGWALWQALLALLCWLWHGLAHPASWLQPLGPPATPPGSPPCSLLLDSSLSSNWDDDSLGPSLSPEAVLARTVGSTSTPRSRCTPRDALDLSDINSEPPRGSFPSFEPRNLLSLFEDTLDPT
The following applies: PKMYT1; 1 uM.
Procedure: as §1

Test [5] concerns the target various enzymes (Homo sapiens, UniProt O60331). The following applies: PIP5K1C; 1 uM.
Procedure: as §1
Test [6] has as its target various enzymes (Homo sapiens, UniProt Q16539). Conditions: p38-alpha; 1 uM.
Procedure: as §1

Sequence of various enzymes (Homo sapiens, UniProt P08581) (P08581 25-1390): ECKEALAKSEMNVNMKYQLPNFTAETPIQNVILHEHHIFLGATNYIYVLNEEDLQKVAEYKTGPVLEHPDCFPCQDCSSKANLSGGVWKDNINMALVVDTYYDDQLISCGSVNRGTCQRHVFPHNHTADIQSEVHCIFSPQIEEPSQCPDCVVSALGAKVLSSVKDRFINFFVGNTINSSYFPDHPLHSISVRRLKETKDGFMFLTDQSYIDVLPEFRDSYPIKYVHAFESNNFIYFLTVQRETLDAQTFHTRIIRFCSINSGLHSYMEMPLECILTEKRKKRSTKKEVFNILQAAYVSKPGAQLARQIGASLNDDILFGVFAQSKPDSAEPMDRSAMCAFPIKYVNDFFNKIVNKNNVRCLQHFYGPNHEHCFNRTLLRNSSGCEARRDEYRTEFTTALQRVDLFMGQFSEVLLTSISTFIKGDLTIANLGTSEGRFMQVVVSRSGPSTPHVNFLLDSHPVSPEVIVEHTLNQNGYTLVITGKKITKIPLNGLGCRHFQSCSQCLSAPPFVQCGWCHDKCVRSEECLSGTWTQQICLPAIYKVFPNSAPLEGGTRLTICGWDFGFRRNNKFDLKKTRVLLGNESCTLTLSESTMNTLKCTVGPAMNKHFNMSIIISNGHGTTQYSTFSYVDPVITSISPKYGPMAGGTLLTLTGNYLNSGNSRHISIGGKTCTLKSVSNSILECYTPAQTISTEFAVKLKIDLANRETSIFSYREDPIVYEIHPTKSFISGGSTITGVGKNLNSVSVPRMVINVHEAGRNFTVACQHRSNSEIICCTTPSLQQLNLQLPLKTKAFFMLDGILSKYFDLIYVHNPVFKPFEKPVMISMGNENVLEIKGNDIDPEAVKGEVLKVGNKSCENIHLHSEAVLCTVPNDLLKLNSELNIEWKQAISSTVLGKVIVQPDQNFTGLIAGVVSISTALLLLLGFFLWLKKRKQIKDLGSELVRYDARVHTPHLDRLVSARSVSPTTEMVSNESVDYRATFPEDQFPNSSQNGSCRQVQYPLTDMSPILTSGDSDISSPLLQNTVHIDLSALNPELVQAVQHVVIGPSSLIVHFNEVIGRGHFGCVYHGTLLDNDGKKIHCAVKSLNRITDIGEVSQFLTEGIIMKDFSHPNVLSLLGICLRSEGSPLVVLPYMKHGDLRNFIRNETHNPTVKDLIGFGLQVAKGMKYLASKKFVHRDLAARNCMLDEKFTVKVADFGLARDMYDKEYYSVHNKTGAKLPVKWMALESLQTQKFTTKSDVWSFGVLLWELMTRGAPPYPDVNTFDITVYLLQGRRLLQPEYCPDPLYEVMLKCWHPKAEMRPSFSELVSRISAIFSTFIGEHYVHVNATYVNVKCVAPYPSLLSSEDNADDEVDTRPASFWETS
Sequence of various enzymes (Homo sapiens, UniProt Q16539) (Q16539 whole entry): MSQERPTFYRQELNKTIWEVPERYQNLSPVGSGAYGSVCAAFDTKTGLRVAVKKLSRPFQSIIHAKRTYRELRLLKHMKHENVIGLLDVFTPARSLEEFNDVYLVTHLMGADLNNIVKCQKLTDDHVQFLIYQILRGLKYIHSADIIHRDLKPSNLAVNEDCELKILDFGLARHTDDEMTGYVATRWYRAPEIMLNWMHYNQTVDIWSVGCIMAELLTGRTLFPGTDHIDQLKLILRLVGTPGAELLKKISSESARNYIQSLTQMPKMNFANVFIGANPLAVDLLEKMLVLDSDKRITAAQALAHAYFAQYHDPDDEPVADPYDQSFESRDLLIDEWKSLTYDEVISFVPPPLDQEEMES
Sequence of various enzymes (Homo sapiens, UniProt O60331) (O60331 whole entry): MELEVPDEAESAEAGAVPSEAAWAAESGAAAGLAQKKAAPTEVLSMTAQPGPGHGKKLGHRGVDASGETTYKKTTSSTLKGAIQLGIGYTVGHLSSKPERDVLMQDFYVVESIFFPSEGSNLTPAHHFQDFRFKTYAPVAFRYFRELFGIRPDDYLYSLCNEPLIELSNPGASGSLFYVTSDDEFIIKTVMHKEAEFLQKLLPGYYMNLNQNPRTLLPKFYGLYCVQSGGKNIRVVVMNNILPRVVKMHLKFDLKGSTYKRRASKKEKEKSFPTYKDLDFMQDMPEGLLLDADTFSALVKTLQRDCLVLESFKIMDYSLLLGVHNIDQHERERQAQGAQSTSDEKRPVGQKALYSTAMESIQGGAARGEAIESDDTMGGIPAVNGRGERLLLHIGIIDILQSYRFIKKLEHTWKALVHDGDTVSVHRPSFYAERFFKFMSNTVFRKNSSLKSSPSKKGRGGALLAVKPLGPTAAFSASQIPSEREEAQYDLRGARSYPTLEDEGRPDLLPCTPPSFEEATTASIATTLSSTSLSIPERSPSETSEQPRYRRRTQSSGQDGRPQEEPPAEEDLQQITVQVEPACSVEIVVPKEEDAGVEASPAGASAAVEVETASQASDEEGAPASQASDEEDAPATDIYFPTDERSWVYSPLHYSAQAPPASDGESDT

Consider `CN1Cc2nn(C)cc2-c2cnc3[nH]cc(c3c2)-c2cnn(c2)CCCC1=O` [Compound 41, (Z)-31,5-dimethyl-11H,21H,31H-5-aza-2(3,5)-pyrrolo[2,3-b]pyridina-1(4,1),3(4,3)-dipyrazolacyclononaphan-6-one], for which the Ambit profiling amounted to 30 at various enzymes [1]; 7.8 at various enzymes [2]; 27 on various enzymes [3]; 64 on various enzymes [4]; 20 at various enzymes [5]; 99 on various enzymes [6].

With `CN1Cc2nn(C)c(C#N)c2-c2cnc3[nH]cc(c3c2)-c2cn(nc2C(F)(F)F)CCCC1=O` [Compound 48, (Z)-31,5-dimethyl-6-oxo-13-(trifluoromethyl)-11H,21H,31H-5-aza-2(3,5)-pyrrolo[2,3-b]pyridina-1(4,1),3(4,3)-dipyrazolacyclononaphane-35-carbonitrile], the Ambit profiling at various enzymes [1] is listed as 48; at various enzymes [2] it was 77; on various enzymes [3] it was 92; at various enzymes [4], 77; at various enzymes [5], 38; at various enzymes [6], 95.
